Where two headings read alike, the source gives them in different places.
How the values were obtained:
[1] = test system: Salmonella Typhimurium TA 98 strain; assay: Mutagenic activity (revertant colonies) of DNA intercalators treated with calcium hypochlorite; assay type: cell-based; details: for No. colonies of revertant organisms: drug 10 ng/ml
Protocol: Solutions of DNA intercalators (doxorubicin, daunorubicin and mitoxantrone)in concentrations of 10 ng/ml D5W were applied in 5 ml quantities to separate petri dishes. Two different concentrations of calcium hypochlorite, 40 g/l and 423 g/l, were applied in 1 ml. volumes separately to the anticancer drug solutions in each petri dish for a period of one minute. After thorough mixing and neutralization of the pH to 7.4 using HCl, 1 ml of each petri dish solution was applied to 35 mm petri dishes containing cultures of Salmonella Typhimurium TA 98 strain. The petri dishes containing bacteria plus overlaid mixtures of calcium hypochlorite/anticancer drug and control plates with bacteria alone were then incubated at 37° C. for 24 hours.

[2] = assay type: physicochemical; details: for Concentration by fluorescence (chromophore recovery): 10 ng on column
Protocol: Treatment of the drugs with calcium hypochlorite was carried out as described in Example 1. One ml aliquots of doxorubicin, daunorubicin and mitoxantrone, separately, were taken from the petri dishes after calcium hypochlorite exposure at two different concentrations for a period of one minute. Ten (10) ng of each of the anticancer drug (based on the final concentration resulting from the addition of calcium hypochlorite to the separate petri dishes containing each anticancer agent) was added to a high performance liquid chromatography column and standard HPLC assays were carried out. A reverse phase C-18 bonded phase HPLC procedure was used. The mobile phase consisted of 30:70 CH3 CN:ammonium acetate at a flow rate of 2 ml/min., using a Varian model 5020 HPLC unit. The anticancer drugs were detected using excitation at 480 nm and emission at 550 nm with a Schoeffel model FS 970 fluoroescence detector.

[3] = Deactivation and decolorization of anticancer drugs by hypochlorite; details: calcium or sodium hypochlorite
Source text: In accordance with the invention, HIV infected blood, or any of a number of active anticancer drugs, can be inactivated by applying thereto an aqueous solution containing 4-40% by weight of calcium or sodium hypochlorite. HIV infected blood, as well as any anticancer agent which can undergo oxidative or alkaline degradation can be deactivated in accordance with the method of the invention. Among the anticancer agents which can be effectively deactivated are the following:
In addition to chemically deactivating the anti-cancer drugs, the method of the invention is also effective to decolorize those, e.g., the anthracyclines, doxorubicin and daunorubicin, which are naturally red in color, and the alkylating agent mitomycin C, which is naturally purple in color, which stain fabrics which they contact. The method of the invention renders the naturally colored anticancer drugs colorless, thus preventing permanent damage to clothes or other materials which come in contact with the drugs.
It has also been determined that HIV infected blood and most anticancer drugs can be deactivated by application of a solution of calcium or sodium hypochlorite in water at a concentration of 4% by weight.

[4] = test system: HIV-infected CD4+ human cell line (H9/IIIB); assay: HIV inactivation by dilute calcium hypochlorite; assay type: cell-based, HIV; human cells
Protocol: The ability of dilute calcium hypochlorite to inactivate HIV was tested against an HIV-infected CD4+ human cell line (H9/IIIB).
H9/IIIB cells (10^6 cells/ml of complete culture medium, RPMI in 10% fetal calf serum [FCS]) were exposed to an aqueous solution containing 4% by weight of calcium hypochlorite for 15 minutes; the volumetric ratio of culture medium to calcium hypochlorite solution was 1:1, or a 50% dilution of a 4% dilute calcium hypochlorite solution in culture medium containing 10% serum. The cells were subsequently washed three times with 10% FCS RPMI and plated in fresh medium and allowed to incubate at 37° C. for three days, to allow any residual live virus and/or virus-infected cells to develop after the brief exposure to the dilute calcium hypochlorite solution. The cells were again pelleted and exposed to lytic CD4+ human cell line (MOT) as a target for any viable virus. The target MOT cells will lyse when infected with HIV. These cells were then allowed to incubate an additional four days. Next, the cells were incubated with human anti-HIV antibody (prepared in accordance the procedures described in Lake DA, Sugano T, Matsumoto Y, et al: "A Hybridoma Producing Monoclonal Antibody Specific for Glycoprotein 120 kDa of Human Immunodeficiency Virus (HIV-1), Life Sciences 45:iii-x, 1989.) for one hour, and then washed and incubated with fluorescent labeled goat anti-human IgG for one hour. The method for HIV detection by formaldehyde fixation and flow cytometry was in accordance with the method described in Lifson JD, Sasaki DT, Engleman EG: "Utility of Formaldehyde Fixation for Flow Cytometry and Inactivation of the AIDS Associated Retrovirus", J Immunological Methods 86:143-149, 1986.
As a positive control, the above procedure was followed with HIV-infected H9/IIIB cells exposed only to culture medium rather than to culture medium and calcium hypochlorite. As a negative control, the above procedure was followed with uninfected H9 cells exposed to an aqueous solution containing 4% by weight of calcium hypochlorite.

[5] = Towlette swabs for work surfaces contaminated by doxorubicin; details: 5% impregnated towlette; stainless steel surface
Source text: The Experimental Materials used are as described above in Example 8. A first fresh, dry test swab or towlette is impregnated with a 5.25% by weight aqueous solution of sodium hypochlorite by applying 5 (five) ml. of the sodium hypochlorite solution to the test swab. A second fresh, dry test swab or towlette is impregnated with a 5% by weight aqueous solution of sodium thiosulfate by applying 5 (five) ml. of the sodium thiosulfate solution to the test swab.
Doxorubicin is placed on a stainless steel work surface, which should cause a red stain to appear.
The sodium thiosulfate impregnated towlette is then wiped, or swabbed, over the work surface containing the chemically inactivated doxorubicin spill.

[6] = test system: HIV infected cells (H9/IIIB); assay: Towlette swabs for work surfaces contaminated by HIV infected cells; set-up: species or system HIV; human cells; details: 5% impregnated towlette; stainless steel surface
Source text: Test Swabs: 17×23 cm nylon-reinforced 4 ply, #34770, each weighing approximately 2.6 gram Terri® Wipers, manufactured by Kimberly Clark, Neenah, Wis.
Bleach: 4% by weight aqueous solution of calcium hypochlorite.
Sodium thiosulfate: 5% by weight aqueous solution, supplied by Tarijian Labs, Inc., Queens Village, N.Y.
HIV infected Cells: H9/IIIB cells (10^6 cells/ml of complete culture medium, RPI in 10% fetal calf serum [FCS]), as described above in Example 6.
A first fresh, dry test swab or towlette is impregnated with a 4.0% by weight aqueous solution of calcium hypochlorite by applying 5 (five) ml. of the calcium hypochlorite solution to the test swab. A second fresh, dry test swab or towlette is impregnated with a 5% by weight aqueous solution of sodium thiosulfate by applying 5 (five) ml. of the sodium thiosulfate solution to the test swab.
A small amount of the HIV infected cells are placed on a stainless steel work surface.
The sodium thiosulfate impregnated towlette is then wiped, or swabbed, over the work surface containing the inactivated virus.

[7] = calcium hypochlorite 40 g/l, one minute
[8] = calcium hypochlorite 423 g/l, one minute
[9] = no calcium hypochlorite, 37° C., 24 hours
[10] = calcium hypochlorite 0 (control)
[11] = lower concentration of calcium hypochlorite (40 g/l), one minute

Row | SMILES | No. colonies of revertant organisms [1, 7] | No. colonies of revertant organisms [1, 8] | No. colonies of revertant organisms [1, 9] | Concentration by fluorescence (chromophore recovery) [2, 10] | Concentration by fluorescence (chromophore recovery) ([2]; calcium hypochlorite 40 g/l) | Concentration by fluorescence (chromophore recovery) ([2]; calcium hypochlorite 423 g/l) | chemical evidence of drug [2, 11] | other results
1 | COc1cccc2c1C(=O)c1c(O)c3c(c(O)c1C2=O)C[C@@](O)(C(C)=O)C[C@@H]3O[C@H]1C[C@H](N)[C@H](O)[C@H](C)O1 [Daunorubicin] | 0 colonies | 0 colonies | 365 colonies | 9.8 ng | 0 ng | 0 ng | no chemical evidence | –
2 | COc1cccc2c1C(=O)c1c(O)c3c(c(O)c1C2=O)C[C@@](O)(C(=O)CO)C[C@@H]3O[C@H]1C[C@H](N)[C@H](O)[C@H](C)O1 [Doxorubicin] | 0 colonies | 0 colonies | 257 colonies | 9.7 ng | 0 ng | 0 ng | no chemical evidence | –
3 | O=C1c2c(O)ccc(O)c2C(=O)c2c(NCCNCCO)ccc(NCCNCCO)c21 [Mitoxantrone] | 44 colonies | 0 colonies | 164 colonies | 10.1 ng | 3.8 ng | 0 ng | – | bacterial revertant growth ([1]; lower concentration of calcium hypochlorite (40 g/l)): associated with bacterial revertant growth; degradation ([2]; lower concentration of calcium hypochlorite (40 g/l), one minute, 1 min): approximately 60%; hypochlorite concentration that may be required for substantially complete deactivation [3]: up to 40 % by weight
4 | [Ca+2].[O-]Cl.[O-]Cl [calcium hypochlorite] | – | – | – | – | – | – | – | No. colonies of revertant organisms, control without drug ([1]; calcium hypochlorite 40 g/l): 0 colonies; No. colonies of revertant organisms, control without drug ([1]; calcium hypochlorite 423 g/l): 0 colonies; HIV / infected cell inactivation ([4]; 4% by weight, 1:1 volumetric ratio, 15 minutes): completely inactivates; viable HIV present ([4]; after four day incubation): no viable HIV varions present; HIV antibody binding ([4]; antibody specific to the 120 kDa viral glycoprotein): no HIV antibody binding is detectable; signs of HIV infection under fluorescent microscope ([4]; fluorescent anti-HIV antibody): no signs of HIV infection; lysis of cells ([4]; non-infected and HIV infected cells, n=4 each): completely lysed
5 | O=S([O-])([O-])=S.[Na+].[Na+] [sodium thiosulfate] | – | – | – | – | – | – | – | neutralization of residual sodium hypochlorite [5]: should neutralize any residual sodium hypochlorite; neutralization of residual calcium hypochlorite [6]: should neutralize any residual calcium hypochlorite
